Where a name gives a salt, the structure may show the parent alone. Read-outs that look alike come from different tables or passages of the source.
What was measured:
[1] = cited from earlier work
[2] = test system: episodic migraine; conditions: continuous carbon dioxide infusion; cited from earlier work
[3] = test system: cultured rat trigeminal ganglion cells; conditions: carbon dioxide treatment of cultures under isohydric conditions; cited from earlier work
[4] = Fluticasone bioavailability at higher Breath Powered doses; format: in vivo, human; conditions: 400 ug or 800 ug twice daily as compared to 200 ug daily conventionally
[5] = test system: post-surgical recalcitrant CRS without polyps; assay: Example #11: placebo controlled study of fluticasone with Breath Powered liquid device; format: in vivo, human; conditions: 12 weeks
Method: Using the same drug-device combination product as Example #10, a small placebo controlled study (N=20) was performed in patients with post-surgical recalcitrant CRS without polyps, producing clinically significant improvements on both objective measures and subjective symptoms.

[6] = test system: chronic rhinosinusitis (CRS) with nasal polyps; assay: Example #10: 3-month placebo controlled study of fluticasone with Breath Powered liquid device; format: in vivo, human
[7] = test system: single migraine attack; assay: Example #1: headache relief after 16 mg intranasal Breath Powered sumatriptan vs 100 mg oral sumatriptan; format: in vivo, human
Source text: The purpose of this study was to study the onset of headache relief following a dose of sumatriptan. The study population included 436 subjects.
Headache relief is defined as a reduction from moderate (grade 2) or severe (grade 3) to none (grade 0) or mild (grade 1) pain.

[8] = Example #3: sumatriptan PK in nitroglycerin (GTN)-induced migraine vs healthy subjects; conditions: human, in vivo, Breath Powered device
[9] = test system: migraine headaches; assay: Examples #4/#7: double-blind crossover head-to-head study, Breath Powered sumatriptan vs 100 mg tablet, blinded pooled data; format: in vivo, human; conditions: 16 mg nasal with placebo tablet; scenario inferred from blinded data
Method: The study is a cross-over design where each patient enrolled will treat headaches with each of the treatments. Specifically, patients will treat up to 5 headaches with a treatment and then cross over to treat up to 5 headaches with the other. With each headache, the patient uses the device and takes a tablet, only one of which will be active. From data on over 400 headaches, as yet unblinded, the results obtained at the 30 min timepoint (headache relief 30 minutes after taking medication) for moderate or severe headaches is 54%.
One set of data include blinded head-to-head (H2H) results. They generally show a high response rate In blinded data, i.e., a reduction from severe/moderate migraine or mild or none.

CN1C[C@H](C(=O)N[C@]2(C)O[C@@]3(O)[C@@H]4CCCN4C(=O)[C@H](Cc4ccccc4)N3C2=O)C[C@@H]2c3cccc4[nH]cc(c34)C[C@H]21 [DHE, dihydroergotamine mesylate]
bioavailability ([1]; administered intranasally): ~40% | bioavailability ([1]; given orally): less than 1%

O=C=O [carbon dioxide]
2-hour pain free response [2]: 25.0% | effect on CGRP secretion [3]: significantly repressed the stimulatory effects of KCI, capsaicin, and nitric oxide on CGRP secretion

C[C@@H]1C[C@H]2[C@@H]3C[C@H](F)C4=CC(=O)C=C[C@]4(C)[C@@]3(F)[C@@H](O)C[C@]2(C)[C@@]1(O)C(=O)SCF [fluticasone]
bioavailability [4]: no significantly greater bioavailability | endoscopy score for edema (median scores) [5]: −4.0 | tolerability ([6]; 400 μg b.i.d., 3 months): well tolerated | subjects with complete elimination of the polyps ([6]; 400 μg b.i.d., after 3 months): ~20% | proportion of subjects with improvement in summed polyp score ([6]; 4 weeks): 22% | proportion of subjects with improvement in summed polyp score ([6]; 8 weeks): 43% | proportion of subjects with improvement in summed polyp score ([6]; 12 weeks): 57% | change in polyp score ([6]; after 12 weeks): −0.98 | summed polyp score ([6]; after 12 weeks, baseline 2.8): 1.8

CNS(=O)(=O)Cc1ccc2[nH]cc(CCN(C)C)c2c1 [sumatriptan]
response rate (headache relief) at 30 minutes ([7]; 16 mg of sumatriptan in the Breath Powered device and oral tablet placebo): 67% | response rate (headache relief) at 30 minutes ([7]; 100 mg of sumatriptan orally with the placebo device): 39% | bioavailability ([8]; other: intranasal powder, 7.5 mg delivered to the side of the migraine during a GTN attack in migraineurs): 27% | Cmax ([8]; other: intranasal, 7.5 mg): 11 ng/mL | suggested response rate at 30 minutes [9]: 70%

CN(C)CCc1c[nH]c2ccc(C[C@H]3COC(=O)N3)cc12 [zolmitriptan]
nasal fraction of the total absorption ([1]; conventional nasal spray): approximately 30%
